Literature values in patent publication US10864193B2, “Parasiticidal compositions comprising fipronil at high concentrations” (BOEHRINGER INGELHEIM ANIMAL HEALTH USA INC., priority 2014, dated 2020).

Details: beagle dogs, spot-on administration, 14C radiolabeled drug

N#Cc1nn(-c2c(Cl)cc(C(F)(F)F)cc2Cl)c(N)c1[S+]([O-])C(F)(F)F (stereo not shown) [fipronil, 5-amino-3-cyano-1-(2,6-dichloro-4-trifluoromethylphenyl)-4-trifluoromethylsulfinylpyrazole]
time persistently detected in the whole skin after treatment: up to 56 days
